Patent US5360803A, “Composition and method for treating cancer” (Dan Farber Cancer Institute, priority 1992, dated 1994)
Like-named read-outs stand apart in the source and are kept apart here.

Columns and labels:
CX-1 cells = experiment: selective killing assay, colony number reduced to 50% of control, human colon carcinoma cell line CX-1; assay type: cell-based; conditions: for IC50: Homo sapiens, CX-1, Table III; for IC50 / CX-1 (IC50): human colon carcinoma, 24 hours treatment, colony count after 7 to 10 days; for Selectivity (ratio of IC50 for CV-1 and IC50 for CX-1): CV-1/CX-1; for CX-1 (IC50): Table III;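 on all read-outs here: colonies stained with crystal violet and counted, control cells given medium alone, exposure at 37 °C, normal monkey kidney epithelial CV-1 cells as the non-cancer comparator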
Procedure: (§1) Human colon carcinoma cell line CX-1 or normal monkey kidney epithelial cell line CV-1 was chosen as representatives of cancer cells and normal cells, respectively. […] CX-1 cells (2,000 cells/well) and CV-1 cells (1,000 cells/well) were plated in 24-well plastic culture plates. […] The control received culture media only. Cells were treated with compounds of General Formulas (I) to (V) at 37° C. for 24 hours. After rinsing with fresh culture medium three times, the cells were further incubated at 37° C. for 7 to 10 days. Cell colonies were fixed and stained with 2% crystal violet in 70% ethanol for 10 minutes and rinsed in water. […] The selectivity is defined as the ratio of IC50 for CV-1 and IC50 for CX-1.

human melanoma LOX = experiment: survival of nude mice implanted with human melanoma LOX; assay type: in vivo, male athymic Swiss nu/nu mouse (human tumor); conditions: Mus musculus, ip, 24 h, read-out: T/C
Procedure: LOX, a human melanoma cell line, grown subcutaneously in nude mice was excised, trypsinized to yield a single cell suspension using a metal grid with a […] mesh. […] Five million viable trypan blue negative cells made up in 0.1 ml of Dulbecco modified Eagle medium (DMFE) were injected into the peritoneal cavity of a male athymic Swiss nu/nu mouse. The control group and each treatment group consisted of 5 to 10 mice. Treatment was commenced the following day by intraperitoneal injection.
Ten control mice received 0.25 ml of 2% dextrose on these days the treated groups were injected with the compounds of this invention. […] T/C is the ratio, expressed as a percentage of the mean survival age of the treated group to the mean survival age of the untreated control group.

CV-1 cells = experiment: selective killing assay, colony number reduced to 50% of control, normal monkey kidney epithelial cell line CV-1; assay type: cell-based; conditions: 24 hours treatment; for IC50: Primates
Text: The control received culture media only.

CRL 1420 cells = experiment: colony assay of Example 1 with human pancreatic carcinoma CRL 1420 cell line; assay type: cell-based; conditions: for Selectivity: CV-1/CRL-1420; for IC50: Homo sapiens, 24 h; for IC50 / CRL-1420(IC50): Table VII, human pancreatic carcinoma, 24 hours treatment;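 on all read-outs here: colony formation assay, cells exposed for 24 h then regrown 7 to 10 days without compound, colonies stained with crystal violet, control given medium alone, normal reference CV-1 monkey kidney epithelial cells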
Procedure: as §1

EJ cells = experiment: colony assay of Example 1 with human bladder carcinoma EJ cell line; assay type: cell-based; conditions: for Selectivity: CV-1/EJ; for IC50: Homo sapiens, EJ, 24 h;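 on all read-outs here: colony formation assay with 24 h compound exposure at 37 °C, then 7–10 days drug-free regrowth, colonies stained with crystal violet, controls given medium alone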
LOX cells = experiment: colony assay of Example 1 with human melanoma LOX cell line; assay type: cell-based; conditions: for Selectivity: CV-1/LOX; for LOX(IC50) / IC50: Table V, human melanoma, 24 hours treatment; for IC50: Homo sapiens, LOX, 24 h;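 on all read-outs here: colony formation assay with 24 h exposure at 37 °C, then 7 to 10 days of regrowth, crystal violet staining of colonies, control wells given medium alone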
Procedure: as §1

[1] = CV-1, Table III, normal monkey kidney epithelial cells, colony count after 7 to 10 days
[2] = 5 mg/kg i.p. on day 1, 4, 8, 10, 12
[3] = Table III, normal monkey kidney epithelial cells, colony count after 7 to 10 days
[4] = Table IV, human bladder carcinoma, 24 hours treatment

CCn1c(=Cc2sc3ccccc3[n+]2CC)sc(=C2Sc3ccc(Cl)cc3N2C)c1=O [Compound 244]
IC50 (CX-1 cells): 10 µg/mL
response vs control in vivo at 10 mg/kg (human melanoma LOX; 10 mg/kg i.p. on day 1, 2, 6, 8, 13): 150%
IC50 (CV-1 cells; [1]): 0.05 µg/mL

CCn1c(=Cc2sc3ccccc3[n+]2CC)sc(=C2Sc3ccc(C)cc3N2C)c1=O [Compound 50]
Selectivity (ratio of IC50 for CV-1 and IC50 for CX-1) (CX-1 cells): 200
IC50 (CX-1 cells): 0.04 µg/mL
response vs control in vivo at 5 mg/kg (human melanoma LOX; 5 mg/kg i.p. on day 1, 2, 3, 6, 9, 10, 13): 163%
IC50 (CV-1 cells; [1]): 8 µg/mL

C=CCn1c(=Cc2oc3ccccc3[n+]2CC)sc(=C2Sc3ccccc3N2C)c1=O [Compound 3]
Selectivity (ratio of IC50 for CV-1 and IC50 for CX-1) (CX-1 cells): 200
IC50 (CX-1 cells): 0.03 µg/mL
response vs control in vivo at 5 mg/kg (human melanoma LOX; 5 mg/kg i.p. on day 1, 4, 8, 11, 14, 16): 218%
IC50 (CV-1 cells; [1]): 6 µg/mL

CCn1c(=C2CCC[n+]3c2sc2ccccc23)sc(=C2Sc3ccccc3N2C)c1=O [Compound 343]
response vs control in vivo at 5 mg/kg (human melanoma LOX; 5 mg/kg i.p. on day 1, 3, 4, 6, 8, 10, 13): 188%

CCn1c(=Cc2oc3c4ccccc4ccc3[n+]2CC)sc(=C2Oc3ccc4ccccc4c3N2C)c1=O [Compound 316]
Selectivity (ratio of IC50 for CV-1 and IC50 for CX-1) (CX-1 cells): 100
CX-1 (IC50) (CX-1 cells): 0.01 µg/mL
response vs control in vivo at 5 mg/kg (human melanoma LOX; [2]): > 340%
CV-1 (IC50) (CV-1 cells; [3]): 1 µg/mL

CCn1c(=Cc2scc[n+]2CC)sc(=C2Oc3ccc(-c4ccccc4)cc3N2C)c1=O [Compound 210]
Selectivity (CRL 1420 cells): 111
IC50 (CRL 1420 cells): 0.09 µg/mL
Selectivity (EJ cells): 100
IC50 (EJ cells; [4]): 0.1 µg/mL
Selectivity (ratio of IC50 for CV-1 and IC50 for CX-1) (CX-1 cells): 100
IC50 (CX-1 cells): 0.1 µg/mL
IC50 (CV-1 cells; CV-1, 24 h, Table IV): 10 µg/mL
IC50 (CV-1 cells; CV-1, 24 h, Table VII): 10 µg/mL
IC50 (CV-1 cells; [1]): 10 µg/mL

CCn1c(=Cc2ccc3ccccc3[n+]2CC)sc(=C2Sc3ccccc3N2C)c1=O [Compound 341]
Selectivity (CRL 1420 cells): 200
CRL-1420(IC50) (CRL 1420 cells): 0.03 µg/mL
Selectivity (LOX cells): 200
LOX(IC50) (LOX cells): 0.03 µg/mL
CV-1 (IC50) (CV-1 cells; Table V): 6 µg/mL
CV-1 (IC50) (CV-1 cells; Table VII): 6 µg/mL

CCn1c(=CC2=[N+](CC)CCS2)sc(=C2SC3=C(CCCC3)N2C)c1=O [Compound 211]
response vs control in vivo at 5 mg/kg (human melanoma LOX; 5 mg/kg i.p. on day 1, 4, 8, 10): 194%

CCn1c(=Cc2cc[n+](CC)c3ccccc23)sc(=C2C=Cc3ccccc3N2C)c1=O [Compound 256]
Selectivity (ratio of IC50 for CV-1 and IC50 for CX-1) (CX-1 cells): 200
IC50 (CX-1 cells): 0.02 µg/mL
response vs control in vivo at 5 mg/kg (human melanoma LOX; [2]): 171%
IC50 (CV-1 cells; [1]): 4 µg/mL

CCn1c(=Cc2sc3c4ccccc4ccc3[n+]2CC)sc(=C2Sc3ccc4ccccc4c3N2C)c1=O [Compound 92]
Selectivity (ratio of IC50 for CV-1 and IC50 for CX-1) (CX-1 cells): 500
CX-1 (IC50) (CX-1 cells): 0.04 µg/mL
response vs control in vivo at 2.5 mg/kg (human melanoma LOX; 2.5 mg/kg i.p. on day 1, 2, 3, 4, 6, 7, 8, 10, 11): 186%
CV-1 (IC50) (CV-1 cells; [3]): 20 µg/mL

CCn1c(=Cc2oc3ccccc3[n+]2C)sc(=C2Sc3ccccc3N2C)c1=O [Compound 12]
Selectivity (CRL 1420 cells): 222
CRL-1420(IC50) (CRL 1420 cells): 0.09 µg/mL
Selectivity (EJ cells): > 400
EJ (IC50) (EJ cells; [4]): 0.05 µg/mL
Selectivity (LOX cells): > 300
LOX(IC50) (LOX cells): < 0.1 µg/mL
Selectivity (ratio of IC50 for CV-1 and IC50 for CX-1) (CX-1 cells): > 667
CX-1 (IC50) (CX-1 cells): 0.03 µg/mL
CV-1 (IC50) (CV-1 cells; [3]): > 20 µg/mL
CV-1 (IC50) (CV-1 cells; Table IV): > 20 µg/mL
CV-1 (IC50) (CV-1 cells; Table V): > 30 µg/mL
CV-1 (IC50) (CV-1 cells; Table VII): 20 µg/mL

CCn1c(=Cc2oc3ccccc3[n+]2CC)sc(=C2Sc3ccccc3N2C)c1=O [Compound 245]
Selectivity (ratio of IC50 for CV-1 and IC50 for CX-1) (CX-1 cells): 350
CX-1 (IC50) (CX-1 cells): 7 µg/mL
response vs control in vivo at 15 mg/kg (human melanoma LOX; 15 mg/kg i.p. on day 1, 5, 9, 13, 19): 200%
CV-1 (IC50) (CV-1 cells; [3]): 0.02 µg/mL

CCn1c(=Cc2sc3c([n+]2CC)-c2ccccc2CC3)sc(=C2Oc3ccc(Cl)cc3N2C)c1=O [Compound 213]
Selectivity (CRL 1420 cells): 200
IC50 (CRL 1420 cells): 0.03 µg/mL
Selectivity (EJ cells): 200
IC50 (EJ cells; [4]): 0.03 µg/mL
Selectivity (LOX cells): 200
IC50 (LOX cells): 0.03 µg/mL
IC50 (CV-1 cells; CV-1, 24 h, Table IV): 6 µg/mL
IC50 (CV-1 cells; CV-1, 24 h, Table V): 6 µg/mL
IC50 (CV-1 cells; CV-1, 24 h, Table VII): 6 µg/mL

CCn1c(=Cc2cccc[n+]2CC)sc(=C2Sc3c(ccc4ccccc34)N2C)c1=O [Compound 239]
Selectivity (CRL 1420 cells): 400
IC50 (CRL 1420 cells): 0.05 µg/mL
Selectivity (EJ cells): 250
IC50 (EJ cells; [4]): 0.08 µg/mL
Selectivity (LOX cells): 400
IC50 (LOX cells): 0.05 µg/mL
Selectivity (ratio of IC50 for CV-1 and IC50 for CX-1) (CX-1 cells): 200
IC50 (CX-1 cells): 0.1 µg/mL
IC50 (CV-1 cells; CV-1, 24 h, Table IV): 20 µg/mL
IC50 (CV-1 cells; CV-1, 24 h, Table V): 20 µg/mL
IC50 (CV-1 cells; CV-1, 24 h, Table VII): 20 µg/mL
IC50 (CV-1 cells; [1]): 20 µg/mL

CCn1c(=Cc2sc3ccc4ccccc4c3[n+]2CC)sc(=C2Oc3ccc(Cl)cc3N2C)c1=O [Compound 209]
Selectivity (CRL 1420 cells): 200
IC50 (CRL 1420 cells): 0.1 µg/mL
Selectivity (LOX cells): 100
IC50 (LOX cells): 0.2 µg/mL
IC50 (CV-1 cells; CV-1, 24 h, Table V): 20 µg/mL
IC50 (CV-1 cells; CV-1, 24 h, Table VII): 20 µg/mL

CCn1c(=Cc2cccc[n+]2CC)sc(=C2Sc3ccccc3N2C)c1=O [Compound 283]
response vs control in vivo at 5 mg/kg (human melanoma LOX; 5 mg/kg i.p. on day 1, 4, 8, 11, 14): > 350%

CCn1c(=Cc2oc3ccc4ccccc4c3[n+]2CC)sc(=C2Oc3ccc4ccccc4c3N2C)c1=O [Compound 87]
Selectivity (ratio of IC50 for CV-1 and IC50 for CX-1) (CX-1 cells): 400
IC50 (CX-1 cells): 0.05 µg/mL
response vs control in vivo at 10 mg/kg (human melanoma LOX; 10 mg/kg i.p. on day 1, 3, 6, 9, 10): 150%
IC50 (CV-1 cells; [1]): 20 µg/mL

CCn1c(=Cc2sc3ccc4ccccc4c3[n+]2CC)sc(=C2Sc3ccccc3N2C)c1=O [Compound 30]
IC50 (CX-1 cells): 0.01 µg/mL
response vs control in vivo at 2.5 mg/kg (human melanoma LOX; 2.5 mg/kg i.p. on day 1, 4, 6, 8): 171%
IC50 (CV-1 cells; [1]): 2 µg/mL

CCn1c(=Cc2scc(C)[n+]2CC)sc(=C2Sc3ccc4ccccc4c3N2C)c1=O [Compound 344]
response vs control in vivo at 5 mg/kg (human melanoma LOX; [2]): > 288%

CCn1c(=Cc2sc3c4ccccc4ccc3[n+]2CC)sc(=C2Sc3ccc(OC)cc3N2C)c1=O [Compound 53]
Selectivity (ratio of IC50 for CV-1 and IC50 for CX-1) (CX-1 cells): 250
IC50 (CX-1 cells): 0.04 µg/mL
response vs control in vivo at 10 mg/kg (human melanoma LOX; 10 mg/kg i.p. on day 1, 2, 3, 5, 8, 10, 13): 150%
IC50 (CV-1 cells; [1]): 10 µg/mL

CCn1c(=Cc2cccc[n+]2CC)sc(=C2Sc3ccccc3N2C)c1=O [Compound 342]
response vs control in vivo at 5 mg/kg (human melanoma LOX; 5 mg/kg i.p. on day 1, 5, 8, 11, 14): > 350%

CCn1c(=Cc2oc3c4ccccc4ccc3[n+]2CC)sc(=C2Sc3c(ccc4ccccc34)N2C)c1=O [Compound 238]
Selectivity (CRL 1420 cells): 1000
IC50 (CRL 1420 cells): 0.02 µg/mL
Selectivity (EJ cells): 2000
IC50 (EJ cells; [4]): 0.01 µg/mL
Selectivity (LOX cells): 1000
IC50 (LOX cells): 0.02 µg/mL
Selectivity (ratio of IC50 for CV-1 and IC50 for CX-1) (CX-1 cells): 400
IC50 (CX-1 cells): 0.05 µg/mL
IC50 (CV-1 cells; CV-1, 24 h, Table IV): 20 µg/mL
IC50 (CV-1 cells; CV-1, 24 h, Table V): 20 µg/mL
IC50 (CV-1 cells; CV-1, 24 h, Table VII): 20 µg/mL
IC50 (CV-1 cells; [1]): 20 µg/mL

CCn1c(=Cc2oc3cc4ccccc4cc3[n+]2CC)sc(=C2Sc3c(ccc4ccccc34)N2C)c1=O [Compound 237]
Selectivity (CRL 1420 cells): 267
IC50 (CRL 1420 cells): 0.03 µg/mL
IC50 (CV-1 cells; CV-1, 24 h, Table VII): 8 µg/mL
